Measurements: US10111437B2, “Substituted guanidines as fungicides” (Nippon Soda Co., Ltd., priority 2015, dated 2018)

Experiments:
[1] = tested on: Apple scab fungus (Venturia inaequalis); test: Apple scab control test (foliar spray on apple seedlings); format: in vivo; conditions: 125 ppm active ingredient, sprayed on apple seedlings (variety Orin) before inoculation, vs untreated
Method: The dilution was sprayed to apple seedlings (variety “Orin”, 3 to 4 leaf stage) grown in clay pots. […] The control value was calculated by the following equation. [formula]

[2] = tested on: cucumber gray mold fungus (Botrytis cinerea); test: Cucumber gray mold control test (foliar spray on cucumber seedlings); conditions: in Cucumis sativus, 96 h, read-out: control value
[3] = tested on: wheat leaf rust fungus (Puccinia recondita); test: Wheat leaf rust control test (foliar spray on wheat seedlings); format: in vivo; conditions: 240 h, 125 ppm active ingredient, sprayed on wheat seedlings (variety Norin 61) before inoculation, 10 days, vs untreated
[4] = tested on: Tomato late blight fungus (Phytophthora infestans); test: whole plant or invertebrate; format: in vivo; conditions: foliar, 96 h, read-out: control value

Measured: pest or weed control at 125 ppm

Cc1cn(CCCOc2ccc(C(=N)N)cc2)c(=N)n1CCCOc1ccc(C(=N)N)cc1 [compound 114]
≥ 75%: all assays above

N=C(N)NCCCCCCCCNC(=N)NCCCOc1ccc(C(=N)N)cn1 [compound 120]
≥ 75%: all assays above

CNC(=N)c1ccc(OCCCn2ccn(CCCOc3ccc(C(=N)N)cc3)c2=N)cc1 [compound 122]
≥ 75%: all assays above

CNC(=N)c1ccc(OCCCCn2ccn(CCCOc3ccc(C(=N)N)cc3)c2=N)cc1 [compound 124]
≥ 75%: all assays above

N=C(N)c1ccc(OCCCn2ccn(CCCc3cc4cc(C(=N)N)ccc4o3)c2=N)cc1 [compound 126]
≥ 75%: all assays above

CN(CCCOc1ccc(C(=N)N)cc1)C(=N)NCCCCCCCCNC(=N)N [compound 128]
≥ 75%: all assays above

CN(C)/C(=N\CCCOc1ccc(C(=N)N)cc1)NCCCOc1ccc(C(=N)N)cc1 [compound 130]
≥ 75%: all assays above

N=C(N)NCCCCCCNC(=N)NCCCCOc1ccc(C(=N)N)cc1 [compound 136]
≥ 75%: all assays above

CN(CCCCCCCCNC(=N)N)C(=N)NCCCOc1ccc(C(=N)N)cc1 [compound 140]
≥ 75%: all assays above

N=C(NCCCOCc1ccc(C(=N)N)cc1)NCCCOc1ccc(C(=N)N)cc1 [compound 142]
≥ 75%: all assays above

N=C(N)NCCCCCCCCNC(=N)NCCCOCc1ccc(C(=N)N)cc1 [compound 145]
≥ 75%: all assays above

N=C(NCC/C=C/c1ccc(C(=N)N)cc1)NCC/C=C/c1ccc(C(=N)N)cc1 [compound 151]
≥ 75%: all assays above

N=C(N)NCCCCCCCCNC(=N)NCCC#Cc1ccc(C(=N)N)cc1 [compound 153]
≥ 75%: all assays above

N=C(N)NCCCCCCCCNC(=N)NCCC=Cc1ccc(C(=N)N)cc1 [compound 157]
≥ 75%: all assays above

N=C(N)NCCCCCCCNC(=N)NCCC=Cc1ccc(C(=N)N)cc1 [compound 163]
≥ 75%: all assays above

N=C(N)NCCCCCCCCNC(=N)NCC#Cc1ccc(C(=N)N)cc1 [compound 165]
≥ 75%: all assays above

N=C(N)NCCCCCCCCNC(=N)NC/C=C/c1ccc(C(=N)N)cc1 [compound 167]
≥ 75%: all assays above

N=C(N)NCCCCCCCCNC(=N)NCCCc1ccc(C(=N)N)cc1 [compound 169]
≥ 75%: all assays above

N=C(N)NCCCCCCCCNC(=N)NCCCCCOc1ccc(C(=N)N)cc1 [compound 171]
≥ 75%: all assays above

N=C(N)c1ccc(OCCCn2ccn(CCCSc3ccc(C(=N)N)cc3)c2=N)cc1 [compound 173]
≥ 75%: all assays above

N=C(N)NCCCCCCCNC(=N)NCCCSc1ccc(C(=N)N)cc1 [compound 177]
≥ 75%: all assays above

N=C(N)NCCCCCCCNC(=N)NCCCOCc1ccc(C(=N)N)cc1 [compound 179]
≥ 75%: all assays above

N=C(N)NCCCCCCCCn1ccn(CCCOc2ccc(C3=NCCCN3)cc2)c1=N [compound 184]
≥ 75%: all assays above

N=C(N)NCCCCCCCNC(=N)NCCCCCOc1ccc(C(=N)N)cc1 [compound 186]
≥ 75%: all assays above

N=C(N)NCCCCCCCCNC(=N)NCCCCOc1ccc(C(=N)N)cc1 [compound 188]
≥ 75%: all assays above

N=C(N)NCCCCCCCCNC(=N)NCCCOc1ccc(C2=NCCCN2)cc1 [compound 192]
≥ 75%: all assays above

N=C(NCCCCOc1ccc(C(=N)N)cc1)NCCCCOc1ccc(C(=N)N)cn1 [compound 194]
≥ 75%: all assays above

N=C(N)NCCCCCCCCNC(=N)NCCOCc1ccc(C(=N)N)cc1 [compound 200]
≥ 75%: all assays above

N=C(N)NCCCCCCCn1ccn(CCCOc2ccc(C3=NCCCN3)cc2)c1=N [compound 206]
≥ 75%: all assays above

N=C(N)NCCCCCCCCNC(=N)NCCOCc1ccc(C2=NCCCN2)cc1 [compound 220]
≥ 75%: all assays above

N=C(N)NCCCCCCCCNC(=N)NCCCOCc1ccc(C2=NCCCN2)cc1 [compound 222]
≥ 75%: all assays above

N=C(N)NCCCCCCCNC(=N)NCCOCc1ccc(C(=N)N)cc1 [compound 228]
≥ 75%: all assays above

N=C(N)NCCCCCCCCNC(=N)NCCCOc1ccc(C(=N)N)cc1 [compound 230]
≥ 75%: all assays above
